Converted amounts (≈) assume the structure as drawn.
Legend:
Mucor racemosus = experiment: Antifungal activity against Mucor racemosus KF223 NBRC4581 by agar dilution method; assay type: functional
Aspergillus niger = experiment: Antifungal activity against Aspergillus niger KF104 ATCC 9643 by agar dilution method; assay type: functional
Aspergillus oryzae = experiment: Antifungal activity against Aspergillus oryzae KF439 by agar dilution method; assay type: functional
Saccharomyces cerevisiae = experiment: Antifungal activity against Saccharomyces cerevisiae KF26 by agar dilution method; assay type: functional
Candida albicans = experiment: Antifungal activity against Candida albicans KF1 by agar dilution method; assay type: functional
Pseudomonas aeruginosa [1] = experiment: Antibacterial activity against Pseudomonas aeruginosa KB359 NBRC12582 by agar dilution method; assay type: functional
Pseudomonas aeruginosa [2] = experiment: Antibacterial activity against Pseudomonas aeruginosa KB115 NBRC3080 by agar dilution method; assay type: functional
Comamonas terrigena = experiment: Antibacterial activity against Comamonas terrigena KB358 NBRC13299 by agar dilution method; assay type: functional
Serratia marcescens = experiment: Antibacterial activity against Serratia marcescens KB215 IAM1021 by agar dilution method; assay type: functional
Proteus mirabilis = experiment: Antibacterial activity against Proteus mirabilis KB125 NBRC3849 by agar dilution method; assay type: functional
Proteus vulgaris = experiment: Antibacterial activity against Proteus vulgaris KB127 IF03167 by agar dilution method; assay type: functional
Salmonella typhimurium = experiment: Antibacterial activity against Salmonella typhimurium KB20 by agar dilution method; assay type: functional, Salmonella enterica subsp. enterica serovar Typhimurium; conditions: Salmonella enterica
Klebsiella pneumoniae [3] = experiment: Antibacterial activity against Klebsiella pneumoniae KB357 NBRC357 by agar dilution method; assay type: functional
Klebsiella pneumoniae [4] = experiment: Antibacterial activity against Klebsiella pneumoniae KB214 ATCC 10031 by agar dilution method; assay type: functional
Escherichia coli [5] = experiment: Antibacterial activity against Escherichia coli KB336 JCM5491 by agar dilution method; assay type: functional
Escherichia coli [6] = experiment: Antibacterial activity against Escherichia coli KB176 NIHJ JC-2 by agar dilution method; assay type: functional
Escherichia coli [7] = experiment: Antibacterial activity against Escherichia coli KB213 NIHJ by agar dilution method; assay type: functional
[8] = test system: Mycolicibacterium smegmatis; experiment: Antibacterial activity against Mycobacterium smegmatis KB42 ATCC 607 by agar dilution method; assay type: functional
Micrococcus luteus = experiment: Antibacterial activity against Micrococcus luteus KB453 NBRC13867 by agar dilution method; assay type: functional
Kocuria rhizophila [9] = experiment: Antibacterial activity against Kocuria rhizophila KB354 NBRC12708 by agar dilution method; assay type: functional
Kocuria rhizophila [10] = experiment: Antibacterial activity against Kocuria rhizophila KB212 ATCC 9341 by agar dilution method; assay type: functional
Bacillus cereus = experiment: Antibacterial activity against Bacillus cereus KB143 NBRC3001 by agar dilution method; assay type: functional
Bacillus subtilis [11] = experiment: Antibacterial activity against Bacillus subtilis KB340 JCM1465 by agar dilution method; assay type: functional
Bacillus subtilis [12] = experiment: Antibacterial activity against Bacillus subtilis KB355 NBRC3134 by agar dilution method; assay type: functional
Bacillus subtilis [13] = experiment: Antibacterial activity against Bacillus subtilis KB211 ATCC 6633 by agar dilution method; assay type: functional
[14] = test system: Staphylococcus epidermidis; experiment: Antibacterial activity against Staphylococcus epidermidis KB352 NBRC12993 by agar dilution method; assay type: functional
Staphylococcus aureus [15] = experiment: Antibacterial activity against Staphylococcus aureus KB349 MRSA K24 by agar dilution method; assay type: functional
Staphylococcus aureus [16] = experiment: Antibacterial activity against Staphylococcus aureus KB335 JCM2151 by agar dilution method; assay type: functional
Staphylococcus aureus [17] = experiment: Antibacterial activity against Staphylococcus aureus KB210 ATCC 6538p by agar dilution method; assay type: functional

## CCCCCC1OC(=O)Cc2cc(OC)c(O)c(O)c21 (racemic)
Mucor racemosus
  MIC: 100 µg/mL (≈ 357 µM)
Aspergillus niger
  MIC: 50 µg/mL (≈ 178 µM)
Aspergillus oryzae
  MIC: 50 µg/mL (≈ 178 µM)
Saccharomyces cerevisiae
  MIC: 12.5 µg/mL (≈ 44.6 µM)
Candida albicans
  MIC: 25 µg/mL (≈ 89.2 µM)
Pseudomonas aeruginosa [1]
  MIC: 100 µg/mL (≈ 357 µM)
Pseudomonas aeruginosa [2]
  MIC: 100 µg/mL (≈ 357 µM)
Comamonas terrigena
  MIC: 50 µg/mL (≈ 178 µM)
Serratia marcescens
  MIC: > 100 µg/mL
Proteus mirabilis
  MIC: 100 µg/mL (≈ 357 µM)
Proteus vulgaris
  MIC: 50 µg/mL (≈ 178 µM)
Salmonella typhimurium
  MIC: > 100 µg/mL
Klebsiella pneumoniae [3]
  MIC: > 100 µg/mL
Klebsiella pneumoniae [4]
  MIC: > 100 µg/mL
Escherichia coli [5]
  MIC: > 100 µg/mL
Escherichia coli [6]
  MIC: > 100 µg/mL
Escherichia coli [7]
  MIC: 100 µg/mL (≈ 357 µM)
[8]
  MIC: 50 µg/mL (≈ 178 µM)
Micrococcus luteus
  MIC: 50 µg/mL (≈ 178 µM)
Kocuria rhizophila [9]
  MIC: 50 µg/mL (≈ 178 µM)
Kocuria rhizophila [10]
  MIC: 50 µg/mL (≈ 178 µM)
Bacillus cereus
  MIC: 50 µg/mL (≈ 178 µM)
Bacillus subtilis [11]
  MIC: 50 µg/mL (≈ 178 µM)
Bacillus subtilis [12]
  MIC: 50 µg/mL (≈ 178 µM)
Bacillus subtilis [13]
  MIC: 100 µg/mL (≈ 357 µM)
[14]
  MIC: 50 µg/mL (≈ 178 µM)
Staphylococcus aureus [15]
  MIC: 50 µg/mL (≈ 178 µM)
Staphylococcus aureus [16]
  MIC: 50 µg/mL (≈ 178 µM)
Staphylococcus aureus [17]
  MIC: 50 µg/mL (≈ 178 µM)
